Measured values taken from paper PMC4504471, “Cilostazol Induces PGI2 Production via Activation of the Downstream Epac-1/Rap1 Signaling Cascade to Increase Intracellular Calcium by PLCε and to Activate p44/42 MAPK in Human Aortic Endothelial Cells” (PLoS ONE, 2015).

Key:
PDE3B [1] = molecular target: T1, PDE3B (Homo sapiens, UniProt Q13370); test: SPR (Biacore S51), direct binding and competition with Epac-1 peptides; cAMP rise in HAECs lost on PDE3B siRNA; conditions: read-out: % maximal inhibition
T1 sequence (Q13370 1-25): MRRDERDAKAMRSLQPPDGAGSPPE
T1 sequence (O95398 whole entry partner): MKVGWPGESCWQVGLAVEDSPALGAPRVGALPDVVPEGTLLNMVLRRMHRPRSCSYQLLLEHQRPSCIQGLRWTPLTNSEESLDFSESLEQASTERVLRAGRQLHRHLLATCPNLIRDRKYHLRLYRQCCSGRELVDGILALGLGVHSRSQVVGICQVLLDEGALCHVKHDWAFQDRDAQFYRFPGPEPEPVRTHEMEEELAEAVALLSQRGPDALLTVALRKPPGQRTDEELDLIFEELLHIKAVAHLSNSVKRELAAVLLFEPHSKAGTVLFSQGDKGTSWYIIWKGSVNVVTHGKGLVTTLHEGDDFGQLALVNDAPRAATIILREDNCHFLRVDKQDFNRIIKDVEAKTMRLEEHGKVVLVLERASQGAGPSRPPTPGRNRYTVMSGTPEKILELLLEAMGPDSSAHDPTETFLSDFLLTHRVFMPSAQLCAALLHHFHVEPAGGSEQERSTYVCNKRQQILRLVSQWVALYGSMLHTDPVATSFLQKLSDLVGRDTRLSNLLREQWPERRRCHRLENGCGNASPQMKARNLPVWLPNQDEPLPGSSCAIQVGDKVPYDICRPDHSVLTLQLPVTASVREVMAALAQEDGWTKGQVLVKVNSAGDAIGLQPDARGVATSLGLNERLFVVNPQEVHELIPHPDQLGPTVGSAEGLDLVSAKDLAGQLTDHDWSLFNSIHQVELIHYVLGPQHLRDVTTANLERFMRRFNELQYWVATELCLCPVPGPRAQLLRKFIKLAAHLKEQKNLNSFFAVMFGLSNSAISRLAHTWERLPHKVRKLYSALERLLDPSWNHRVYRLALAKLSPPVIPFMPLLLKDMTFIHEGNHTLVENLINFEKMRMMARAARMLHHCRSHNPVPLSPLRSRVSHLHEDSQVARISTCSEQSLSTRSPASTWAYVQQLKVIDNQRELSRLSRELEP

PDE3B [2] = molecular target: T1, PDE3B; test: SPR (Biacore S51), competition with Epac-1 peptides on immobilized PDE3B peptide; assay type: binding; conditions: read-out: % maximal inhibition

| Emax (PDE3B [1]) | Structure (SMILES) | Emax (PDE3B [2]) |
| --- | --- | --- |
| 70% | O=C1CCc2cc(OCCCCc3nnnn3C3CCCCC3)ccc2N1 [cilostazol, 6-[4-(1-cyclohexyl-1H-tetrazol-5-yl)butyloxy]-3,4-dihydroquinolin-2-(1H)-one] |  |
|  | Cc1[nH]c(=O)c(C#N)cc1-c1ccncc1 [milrinone] | 60% |
|  | CN(C(=O)CCCOc1ccc2[nH]c(=O)ccc2c1)C1CCCCC1 [cilostamide] | 63% |
